Source: patent US20230373939A1 (VERTEX PHARMACEUTICALS INCORPORATED, priority 2020, published 2023)
pEC50: −log10 of the molar value. Like-named read-outs stand apart in the source and are kept apart here.

Target: T1, F508del in NIH 3T3 cells (Homo sapiens, UniProt P13569, DEL508-508)
T1 construct: expressed in transfected cells
Assay: 3T3 assay: membrane potential optical assay for F508del correction
Format: cell-based
Conditions: for pEC50: read-out: 3T3 EC50
Description: 1. Membrane Potential Optical Methods for Assaying F508del Modulation Properties of Compounds
The assay utilizes fluorescent voltage sensing dyes to measure changes in membrane potential using a fluorescent plate reader (e.g., FLTPR III, Molecular Devices, Inc.) as a readout for increase in functional F508del in NIH 3T3 cells. The driving force for the response is the creation of a chloride ion gradient in conjunction with channel activation by a single liquid addition step after the cells have previously been treated with compounds and subsequently loaded with a voltage sensing dye.
2. Identification of Corrector Compounds
To identify correctors of F508del, a single-addition HTS assay format was developed. This HTS assay utilizes fluorescent voltage sensing dyes to measure changes in membrane potential on the FLIPR III as a measurement for increase in gating (conductance) of F508del in F508del NUT 3T3 cells. The F508del NUT 3T3 cell cultures were incubated with the corrector compounds at a range of concentrations for 18-24 hours at 37° C., and subsequently loaded with a redistribution dye. The driving force for the response is a Cl^− ion gradient in conjunction with channel activation with forskolin in a single liquid addition step using a fluorescent plate reader such as FLIPR III.
Bath Solution #1: (in mM) NaCl 160, KCl 4.5, CaCl2 2, MgCl2 1, HEPES 10, pH 7.4 with NaOH.
Chloride-free bath solution: Chloride salts in Bath Solution #1 (above) are substituted with gluconate salts.
NIH3T3 mouse fibroblasts stably expressing F508del were used for optical measurements of membrane potential. The cells were maintained at 37° C. in 5% CO2 and 90% humidity in Dulbecco's modified Eagle's medium supplemented with 2 mM glutamine, 10% fetal bovine serum, 1×NEAA, b-ME, 1×pen/strep, and 25 mM HEPES in 175 cm^2 culture flasks. For all optical assays, the cells were seeded at ˜20,000/well in 384-well Matrigel-coated plates. For the correction assays, the cells were cultured at 37° C. with and without compounds for 16-24 hours.

[1] = NIH3T3, NIH 3T3 cells, F508del, read-out: 3T3 Max Activity (%)

T1 sequence (P13569 with tags, fused parts or gaps DEL508-508): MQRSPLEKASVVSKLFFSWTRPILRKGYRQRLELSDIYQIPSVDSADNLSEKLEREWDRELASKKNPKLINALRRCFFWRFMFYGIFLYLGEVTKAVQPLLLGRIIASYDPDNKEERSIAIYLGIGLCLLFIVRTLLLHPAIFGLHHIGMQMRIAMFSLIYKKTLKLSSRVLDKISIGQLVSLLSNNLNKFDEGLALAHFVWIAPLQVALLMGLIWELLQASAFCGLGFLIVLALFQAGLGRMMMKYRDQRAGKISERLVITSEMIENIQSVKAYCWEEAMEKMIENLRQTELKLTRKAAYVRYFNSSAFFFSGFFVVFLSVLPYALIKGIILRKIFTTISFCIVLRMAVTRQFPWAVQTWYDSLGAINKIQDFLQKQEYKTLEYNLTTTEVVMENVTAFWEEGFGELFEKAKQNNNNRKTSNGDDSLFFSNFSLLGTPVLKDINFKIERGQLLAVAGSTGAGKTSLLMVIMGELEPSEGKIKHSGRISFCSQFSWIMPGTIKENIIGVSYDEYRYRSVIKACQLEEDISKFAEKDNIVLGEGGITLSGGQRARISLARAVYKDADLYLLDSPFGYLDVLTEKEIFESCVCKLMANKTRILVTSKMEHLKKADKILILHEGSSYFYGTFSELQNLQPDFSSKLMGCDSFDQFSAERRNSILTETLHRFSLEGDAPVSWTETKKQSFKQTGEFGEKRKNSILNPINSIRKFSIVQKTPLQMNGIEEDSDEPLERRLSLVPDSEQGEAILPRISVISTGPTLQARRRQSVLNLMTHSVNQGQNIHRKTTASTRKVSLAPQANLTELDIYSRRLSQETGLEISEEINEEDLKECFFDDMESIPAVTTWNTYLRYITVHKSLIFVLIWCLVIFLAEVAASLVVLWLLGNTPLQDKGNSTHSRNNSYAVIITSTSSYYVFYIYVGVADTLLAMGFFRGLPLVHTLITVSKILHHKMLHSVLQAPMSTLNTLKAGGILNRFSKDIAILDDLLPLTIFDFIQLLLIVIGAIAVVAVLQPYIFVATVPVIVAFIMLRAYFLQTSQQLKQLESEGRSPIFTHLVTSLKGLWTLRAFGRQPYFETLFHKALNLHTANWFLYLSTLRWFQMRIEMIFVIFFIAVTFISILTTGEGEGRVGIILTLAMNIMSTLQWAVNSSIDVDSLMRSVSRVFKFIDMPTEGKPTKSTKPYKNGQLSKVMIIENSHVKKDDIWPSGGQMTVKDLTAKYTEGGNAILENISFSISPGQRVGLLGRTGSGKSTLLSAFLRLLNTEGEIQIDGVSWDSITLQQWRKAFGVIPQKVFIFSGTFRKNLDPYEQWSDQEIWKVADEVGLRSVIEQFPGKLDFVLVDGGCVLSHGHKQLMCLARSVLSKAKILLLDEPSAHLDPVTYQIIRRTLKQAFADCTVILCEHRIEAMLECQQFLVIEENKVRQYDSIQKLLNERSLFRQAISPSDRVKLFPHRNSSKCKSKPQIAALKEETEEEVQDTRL

SMILES | Emax [1] | pEC50 (NIH 3T3 cells, F508del) | Emax (NIH3T3, read-out: 3T3 Max Activity (%))
O=S(=O)(Nc1nn(-c2ccccc2)cc1-c1cccs1)c1ccccc1 [Compound 75, N-[1-phenyl-4-(2-thienyl)pyrazol-3-yl]benzenesulfonamide] | < 30% |  | 
O=S(=O)(Nc1n[nH]cc1-c1ccccc1)c1ccccc1 [Compound 77, N-(4-phenyl-1H-pyrazol-3-yl)benzenesulfonamide] | < 30% |  | 
O=S(=O)(Nc1ccnn1CC1CC1)c1ccccc1 [Compound 78, N-[2-(cyclopropylmethyl)pyrazol-3-yl]benzenesulfonamide] | < 30% |  | 
O=S(=O)(Nc1ccnn1C1CCCCC1)c1ccccc1 [Compound 79, N-(2-cyclohexylpyrazol-3-yl)benzenesulfonamide] | < 30% |  | 
Cc1ccc(-n2nc(NS(=O)(=O)c3ccccc3)cc2C(C)(C)C)cc1 [Compound 80, N-[5-tert-butyl-1-(p-tolyl)pyrazol-3-yl]benzenesulfonamide] | 30 to 60% |  | 
CC(C)Cc1cn(-c2cccc(Cl)c2)nc1NS(=O)(=O)c1ccccc1 [Compound 81, N-[1-(3-chlorophenyl)-4-isobutyl-pyrazol-3-yl]benzenesulfonamide] | < 30% |  | 
CC(C)Cc1cn(-c2ccccc2)nc1NS(=O)(=O)c1ccccc1 [Compound 82, N-(4-isobutyl-1-phenyl-pyrazol-3-yl)benzenesulfonamide] | < 30% |  | 
O=S(=O)(Nc1nn(-c2cccc(Cl)c2)cc1C1CCCCC1)c1ccccc1 [Compound 83, N-[1-(3-chlorophenyl)-4-cyclohexyl-pyrazol-3-yl]benzenesulfonamide] | < 30% |  | 
O=S(=O)(Nc1nn(-c2ccccc2)cc1C1CCCCC1)c1ccccc1 [Compound 84, N-(4-cyclohexyl-1-phenyl-pyrazol-3-yl)benzenesulfonamide] | < 30% |  | 
CC(C)=Cc1cn(-c2cccc(Cl)c2)nc1NS(=O)(=O)c1ccccc1 [Compound 85, N-[1-(3-chlorophenyl)-4-(2-methylprop-1-enyl)pyrazol-3-yl]benzenesulfonamide] | 30 to 60% | 4.52 to 5.52 | 
C=C(C)c1cn(-c2cccc(Cl)c2)nc1NS(=O)(=O)c1ccccc1 [Compound 86, N-[1-(3-chlorophenyl)-4-isopropenyl-pyrazol-3-yl]benzenesulfonamide] | 30 to 60% | 4.52 to 5.52 | 
O=S(=O)(Nc1nn(-c2cccc(Cl)c2)cc1C1=CCCCC1)c1ccccc1 [Compound 87, N-[1-(3-chlorophenyl)-4-(cyclohexen-1-yl)pyrazol-3-yl]benzenesulfonamide] | 30 to 60% | 5.52 to 6.00 | 
O=S(=O)(Nc1nn(-c2cccc(Cl)c2)cc1-c1ccc(Cl)cc1)c1ccccc1 [Compound 88, N-[1-(3-chlorophenyl)-4-(4-chlorophenyl)pyrazol-3-yl]benzenesulfonamide] | < 30% |  | 
O=S(=O)(Nc1nn(-c2cccc(Cl)c2)cc1-c1ccccc1Cl)c1ccccc1 [Compound 89, N-[4-(2-chlorophenyl)-1-(3-chlorophenyl)pyrazol-3-yl]benzenesulfonamide] | < 30% |  | 
COc1ccc(-c2cn(-c3cccc(Cl)c3)nc2NS(=O)(=O)c2ccccc2)cc1 [Compound 90, N-[1-(3-chlorophenyl)-4-(4-methoxyphenyl)pyrazol-3-yl]benzenesulfonamide] | < 30% | > 6.00 | 
COc1cccc(-c2cn(-c3cccc(Cl)c3)nc2NS(=O)(=O)c2ccccc2)c1 [Compound 91, N-[1-(3-chlorophenyl)-4-(3-methoxyphenyl)pyrazol-3-yl]benzenesulfonamide] | 30 to 60% | 5.52 to 6.00 | 
COc1ccccc1-c1cn(-c2cccc(Cl)c2)nc1NS(=O)(=O)c1ccccc1 [Compound 92, N-[1-(3-chlorophenyl)-4-(2-methoxyphenyl)pyrazol-3-yl]benzenesulfonamide] | 30 to 60% | 5.52 to 6.00 | 

SMILES | Emax [1] | pEC50 (NIH 3T3 cells, F508del) | Emax (NIH3T3, read-out: 3T3 Max Activity (%))
Cc1ccc(-c2cn(-c3cccc(Cl)c3)nc2NS(=O)(=O)c2ccccc2)cc1 [Compound 93, N-[1-(3-chlorophenyl)-4-(p-tolyl)pyrazol-3-yl]benzenesulfonamide] | < 30% |  | 
Cc1cccc(-c2cn(-c3cccc(Cl)c3)nc2NS(=O)(=O)c2ccccc2)c1 [Compound 94, N-[1-(3-chlorophenyl)-4-(m-tolyl)pyrazol-3-yl]benzenesulfonamide] | 30 to 60% | 5.52 to 6.00 | 
Cc1ccccc1-c1cn(-c2cccc(Cl)c2)nc1NS(=O)(=O)c1ccccc1 [Compound 95, N-[1-(3-chlorophenyl)-4-(o-tolyl)pyrazol-3-yl]benzenesulfonamide] | < 30% |  | 
Cc1cc(C)c(-n2cc(-c3ccccc3)c(NS(=O)(=O)c3ccccc3)n2)c(C)c1 [Compound 96, N-[4-phenyl-1-(2,4,6-trimethylphenyl)pyrazol-3-yl]benzenesulfonamide] | 30 to 60% | > 6.00 | 
C=C(C)c1cn(-c2c(C)cc(C)cc2C)nc1NS(=O)(=O)c1ccccc1 [Compound 97, N-[4-isopropenyl-1-(2,4,6-trimethylphenyl)pyrazol-3-yl]benzenesulfonamide] | < 30% |  | 
Cc1cc(C)c(-n2cc(C(C)C)c(NS(=O)(=O)c3ccccc3)n2)c(C)c1 [Compound 98] | < 30% |  | 
Cc1cc(C)c(-n2cc(Br)c(NS(=O)(=O)c3ccccc3)n2)c(C)c1 [Compound 99, N-[4-bromo-1-(2,4,6-trimethylphenyl)pyrazol-3-yl]benzenesulfonamide] | < 30% |  | 
Cc1ccc(-n2nc(NS(=O)(=O)c3ccccc3)cc2C)cc1 [Compound 100, N-[5-methyl-1-(p-tolyl)pyrazol-3-yl]benzenesulfonamide] | < 30% |  | 
Cc1ccc(-c2cn(Cc3ccccc3)nc2NS(=O)(=O)c2ccccc2)cc1 [Compound 101, N-[1-benzyl-4-(p-tolyl)pyrazol-3-yl]benzenesulfonamide] | 30 to 60% | 5.52 to 6.00 | 
O=S(=O)(Nc1ccn(Cc2ccccc2)n1)c1ccccc1 [Compound 102, N-(1-benzylpyrazol-3-yl)benzenesulfonamide] |  |  | < 30%
O=S(=O)(Nc1nn(Cc2ccccc2)cc1C1CCCCC1)c1ccccc1 [Compound 103, N-(1-benzyl-4-cyclohexyl-pyrazol-3-yl)benzenesulfonamide] | < 30% |  | 
CC(C)=Cc1cn(Cc2ccccc2)nc1NS(=O)(=O)c1ccccc1 [Compound 104, N-[1-benzyl-4-(2-methylprop-1-enyl)pyrazol-3-yl]benzenesulfonamide] | < 30% |  | 
C=C(C)c1cn(Cc2ccccc2)nc1NS(=O)(=O)c1ccccc1 [Compound 105, N-(1-benzyl-4-isopropenyl-pyrazol-3-yl)benzenesulfonamide] | < 30% |  | 
O=S(=O)(Nc1nn(Cc2ccccc2)cc1C1=CCCCC1)c1ccccc1 [Compound 106, N-[1-benzyl-4-(cyclohexen-1-yl)pyrazol-3-yl]benzenesulfonamide] | < 30% |  | 
O=S(=O)(Nc1nn(Cc2ccccc2)cc1-c1ccccc1)c1ccccc1 [Compound 107, N-(1-benzyl-4-phenyl-pyrazol-3-yl)benzenesulfonamide] | < 30% |  | 
O=S(=O)(Nc1nn(Cc2ccccc2)cc1-c1ccc(Cl)cc1)c1ccccc1 [Compound 108, N-[1-benzyl-4-(4-chlorophenyl)pyrazol-3-yl]benzenesulfonamide] | 30 to 60% |  | 
O=S(=O)(Nc1nn(Cc2ccccc2)cc1-c1cccc(Cl)c1)c1ccccc1 [Compound 109, N-[1-benzyl-4-(3-chlorophenyl)pyrazol-3-yl]benzenesulfonamide] | < 30% |  | 
